Biological target: T1, human CXCR4 receptor (Homo sapiens, UniProt P61073)
T1 construct: expressed in transfected cells
Assay: Measurement of intracellular Ca+2 responses (FLIPR), antagonism of the SDF-1α response
Assay type: cell-based
Conditions: for IC50: HEK-Gqi5 cells stably expressing human CXCR4, Fluo-4 FLIPR, antagonism of SDF-1α 1.9 nM (EC65); for CXCR4 (% Inh): percent antagonism of SDF-1α 1.9 nM (EC65) response, HEK-Gqi5 human CXCR4 cells, value in brackets
Summary of the method: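 HEK-Gqi5 cells stably expressing CXCR4, Fluo-4-loaded (2 uM, 40 min, 37 °C), read on FLIPR. Compound (2.44-40,000 nM) added first for agonism, then SDF-1α at 1.9 nM final (EC65); IC50 and percent antagonism from second-addition calcium signal.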

T1 sequence (P61073 whole entry): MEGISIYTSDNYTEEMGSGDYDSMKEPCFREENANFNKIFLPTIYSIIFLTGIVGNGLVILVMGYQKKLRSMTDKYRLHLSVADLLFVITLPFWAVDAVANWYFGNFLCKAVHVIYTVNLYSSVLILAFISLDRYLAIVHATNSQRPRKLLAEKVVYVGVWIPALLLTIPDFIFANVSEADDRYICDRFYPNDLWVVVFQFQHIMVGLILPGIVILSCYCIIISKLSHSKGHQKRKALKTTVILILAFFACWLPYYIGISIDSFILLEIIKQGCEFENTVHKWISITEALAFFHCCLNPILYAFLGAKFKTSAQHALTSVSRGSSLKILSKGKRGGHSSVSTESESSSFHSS

Row | SMILES | IC50 (values in nM) | CXCR4 (% Inh) | IC50 (values given in μM)
1 | COc1cccc(N(C)C)c1CN1CCC(Nc2nc(NCC[C@@H]3CCCN3C(=O)OC(C)(C)C)nc3ccccc23)CC1 [Compound 114, (S)-tert-Butyl 2-(2-(4-(1-(2-(Dimethylamino)-6-methoxybenzyl)piperidin-4-ylamino)quinazolin-2-ylamino)ethyl)pyrrolidine-1-carboxylate] |  | 75% | 2100 nM
2 | COc1cc2nc(NC[C@@H]3CCNC3)nc(NC3CCN(Cc4c(OCCN(C)C)cccc4N(C)C)CC3)c2cc1OC [Compound 123, (R)—N-4-(1-(2-(Dimethylamino)-6-(2-(dimethylamino)ethoxy)benzyl)piperidin-4-yl)-6,7-dimethoxy-N2-(pyrrolidin-3-ylmethyl)quinazoline-2,4-diamine] | 84 nM | 96% | 
3 | CN(C)CCCNc1nc(NC2CCN(Cc3ccccc3-n3cccc3)CC2)c2ccccc2n1 [Compound 130, N4-(1-(2-(1H-Pyrrol-1-yl)benzyl)piperidin-4-yl)-N2-(3-(dimethylamino)propyl)quinazoline-2,4-diamine] | 978 nM | 75% | 
4 | CCN(CC)CCCNc1nc(NC2CCN(Cc3ccccc3-n3ccnc3)CC2)c2ccccc2n1 [Compound 131, N4-(1-(2-(1H-Imidazol-1-yl)benzyl)piperidin-4-yl)-N2-(3-(diethylamino)propyl)quinazoline-2,4-diamine] |  | 74% | 6600 nM
5 | CCN(CC)CCCNc1nc(NC2CCN(Cc3ccccc3-n3cccc3)CC2)c2ccccc2n1 [Compound 132, N4-(1-(2-(1H-Pyrrol-1-yl)benzyl)piperidin-4-yl)-N2-(3-(diethylamino)propyl)quinazoline-2,4-diamine] |  | 84% | 1400 nM
6 | CCN(CC)CCCNc1nc(NC2CCN(Cc3cccc4ccn(C)c34)CC2)c2ccccc2n1 [Compound 133, N2-(3-(Diethylamino)propyl)-N4-(1-((1-methyl-1H-indol-7-yl)methyl)piperidin-4-yl)quinazoline-2,4-diamine] |  | 63% | 2200 nM
7 | CCN(CC)CCCNc1nc(NC2CCN(Cc3c(OC(C)C)cccc3N(C)C)CC2)c2cc(OC)c(OC)cc2n1 [Compound 139, N˜2˜-[3-(Diethylamino)propyl]-N˜4˜-{1-[2-(dimethylamino)-6-isopropoxybenzyl]piperidin-4-yl}-6,7-dimethoxyquinazoline-2,4-diamine] |  | 93% | 1400 nM
8 | CCN(CC)CCCNc1nc(NC2CCN(Cc3ccccc3N)CC2)c2ccccc2n1 [Compound 149, N˜4˜-[1-(2-Aminobenzyl)piperidin-4-yl]-N˜2˜-[3-(diethylamino)propyl]quinazoline-2,4-diamine] |  | 68% | > 10000 nM
9 | CCN(CC)CCCNc1nc(NC2CCN(Cc3cccc(C)c3N(C)C)CC2)c2ccccc2n1 [Compound 152, N˜2˜-[3-(Diethylamino)propyl]-N˜4˜-{1-[2-(dimethylamino)-3-methylbenzyl]piperidin-4-yl}quinazoline-2,4-diamine] |  | 100% | 1400 nM
10 | COc1cc2nc(NCCCN(C)C)nc(NC3CCN(Cc4c(OC)cccc4N(C)CCN(C)C)CC3)c2cc1OC [Compound 157, N˜4˜-[1-(2-{[2-(Dimethylamino)ethyl](methyl)amino}-6-methoxybenzyl)piperidin-4-yl]-N˜2˜-[3-(dimethylamino)propyl]-6,7-dimethoxyquinazoline-2,4-diamine] | 411 nM | 94% | 
11 | CCN(CC)CCCNc1nc(NC2CCN(Cc3c(OCCN(C)C)cccc3N(C)C)CC2)c2cc(OC)c(OC)cc2n1 [Compound 166, N˜2˜-[3-(Diethylamino)propyl]-N˜4˜-(1-{2-(dimethylamino)-6-[2-(dimethylamino)ethoxy]benzyl}piperidin-4-yl)-6,7-dimethoxyquinazoline-2,4-diamine] | 49 nM | 94% | 
12 | COc1cc2nc(NCCCN(C)C)nc(NCCNCc3c(OC)cccc3N(C)C)c2cc1OC [Compound 178, N˜4˜-(2-{[2-(Dimethylamino)-6-methoxybenzyl]amino}ethyl)-N˜2˜-[3-(dimethylamino)propyl]-6,7-dimethoxyquinazoline-2,4-diamine] |  | 49% | > 10000 nM
13 | COc1cc2nc(NCCN)nc(NC3CCN(Cc4c(OCCN(C)C)cccc4N(C)C)CC3)c2cc1OC [Compound 180, N˜2˜-(2-Aminoethyl)-N˜4˜-(1-{2-(dimethylamino)-6-[2-(dimethylamino)ethoxy]benzyl}piperidin-4-yl)-6,7-dimethoxyquinazoline-2,4-diamine] | 116 nM | 94% | 
14 | COc1cc2nc(NCCCN)nc(NC3CCN(Cc4c(OCCN(C)C)cccc4N(C)C)CC3)c2cc1OC [Compound 182, N˜2˜-(3-Aminopropyl)-N˜4˜-(1-{2-(dimethylamino)-6-[2-(dimethylamino)ethoxy]benzyl}piperidin-4-yl)-6,7-dimethoxyquinazoline-2,4-diamine] | 47 nM | 94% | 

Next, values leading:

Row | IC50 (values in nM) | CXCR4 (% Inh) | IC50 (values given in μM) | SMILES
15 | 129 nM | 99% |  | COc1cccc(N(C)C)c1CN1CCC(Nc2nc(NC[C@@H]3CCNC3)nc3ccccc23)CC1 [Compound 113, (R)—N-4-(1-(2-(Dimethylamino)-6-methoxybenzyl)piperidin-4-yl)-N2-(pyrrolidin-3-ylmethyl)quinazoline-2,4-diamine]
16 | 234 nM | 95% |  | COc1cccc(N(C)C)c1CN1CCC(Nc2nc(NCC[C@@H]3CCCN3)nc3ccccc23)CC1 [Compound 115, (S)—N-4-(1-(2-(Dimethylamino)-6-methoxybenzyl)piperidin-4-yl)-N2-(2-(pyrrolidin-2-yl)ethyl)quinazoline-2,4-diamine]
17 |  | 83% | 2200 nM | COc1cccc(N(C)C)c1CN1CCC(Nc2nc(NCC[C@H]3CCCN3C(=O)OC(C)(C)C)nc3ccccc23)CC1 [Compound 116, (R)-tert-Butyl 2-(2-(4-(1-(2-(Dimethylamino)-6-methoxybenzyl)piperidin-4-ylamino)quinazolin-2-ylamino)ethyl)pyrrolidine-1-carboxylate]
18 | 319 nM | 95% |  | COc1cccc(N(C)C)c1CN1CCC(Nc2nc(NCC[C@H]3CCCN3)nc3ccccc23)CC1 [Compound 117, (R)—N-4-(1-(2-(Dimethylamino)-6-methoxybenzyl)piperidin-4-yl)-N2-(2-(pyrrolidin-2-yl)ethyl)quinazoline-2,4-diamine]
19 | 762 nM | 97% |  | COc1cccc(N(C)C)c1CN1CCC(Nc2nc(NCCNC(C)=O)nc3ccccc23)CC1 [Compound 118, N-(2-(4-(1-(2-(Dimethylamino)-6-methoxybenzyl)piperidin-4-ylamino)quinazolin-2-ylamino)ethyl)acetamide]
20 | 387 nM | 96% |  | COc1cccc(N(C)C)c1CN1CCC(Nc2nc(NCCc3c[nH]cn3)nc3ccccc23)CC1 [Compound 119, N2-(2-(1H-Imidazol-4-yl)ethyl)-N4-(1-(2-(dimethylamino)-6-methoxybenzyl)piperidin-4-yl)quinazoline-2,4-diamine]
21 |  | 95% | 1700 nM | COc1cccc(N(C)C)c1CN1CCC(Nc2nc(NCCCn3ccnc3)nc3ccccc23)CC1 [Compound 120, N2-(3-(1H-Imidazol-1-yl)propyl)-N4-(1-(2-(dimethylamino)-6-methoxybenzyl)piperidin-4-yl)quinazoline-2,4-diamine]
22 | 380 nM | 97% |  | COc1cccc(N(C)C)c1CN1CCC(Nc2nc(NCC3CCN(C)C3)nc3ccccc23)CC1 (centres unmarked) [Compound 121, N4-(1-(2-(Dimethylamino)-6-methoxybenzyl)piperidin-4-yl)-N2-((1-methylpyrrolidin-3-yl)methyl)quinazoline-2,4-diamine]
23 | 268 nM | 97% |  | COc1cccc(N(C)C)c1CN1CCC(Nc2nc(NCCN)nc3ccccc23)CC1 [Compound 125, N2-(2-Aminoethyl)-N4-(1-(2-(dimethylamino)-6-methoxybenzyl)piperidin-4-yl)quinazoline-2,4-diamine]
24 |  | 96% | 2900 nM | COc1cccc(N(C)C)c1CN1CCC(Nc2nc(NCCNC(=O)NC(C)C)nc3ccccc23)CC1 [Compound 126, 1-(2-(4-(1-(2-(Dimethylamino)-6-methoxybenzyl)piperidin-4-ylamino)quinazolin-2-ylamino)ethyl)-3-isopropylurea]
25 |  | 96% | 1200 nM | COc1cccc(N(C)C)c1CN1CCC(Nc2nc(NCCCN(C)C)nc3ccc(Br)cc23)CC1 [Compound 146, 6-Bromo-N˜4˜-{1-[2-(dimethylamino)-6-methoxybenzyl]piperidin-4-yl}-N˜2˜-[3-(dimethylamino)propyl]quinazoline-2,4-diamine]
26 | 118 nM | 98% |  | COc1cccc(N(C)C)c1CN1CCC(Nc2nc(NCCN(C)C)nc3ccccc23)CC1 [Compound 153, N˜2˜-[2-(Dimethylamino)ethyl]-N˜4˜-{1-[2-(dimethylamino)-6-methoxybenzyl]piperidin-4-yl}quinazoline-2,4-diamine]
27 | 560 nM | 97% |  | COc1cccc(N(C)C)c1CN1CCC(Nc2nc(NCCN3CCN(C)CC3)nc3ccccc23)CC1 [Compound 154, N˜4˜-{1-[2-(Dimethylamino)-6-methoxybenzyl]piperidin-4-yl}-N˜2˜-[2-(4-methylpiperazin-1-yl)ethyl]quinazoline-2,4-diamine]
28 | 770 nM | 97% |  | COc1cccc(N(C)C)c1CN1CCCC(Nc2nc(NCCCN(C)C)nc3ccccc23)CC1 (centres unmarked) [Compound 174, N˜4˜-{1-[2-(Dimethylamino)-6-methoxybenzyl]azepan-4-yl}-N˜2˜-[3-(dimethylamino)propyl]quinazoline-2,4-diamine]
